Literature values as cited in patent publication EP1323421A1 (priority 2001, dated 2003).
Where two headings read alike, the source gives them in different places.

What was measured:
[1] = in vivo
[2] = not given; remark: listed apart in the source
[3] = not given; remark: listed apart in the source
plasma proteins = details: mainly to alpha and beta globulins
[4] = intravenous single dose of about 0.3 mg

Compound: CO[C@]12CC[C@@]3(C[C@@H]1[C@](C)(O)C(C)(C)C)[C@H]1Cc4ccc(O)c5c4[C@@]3(CCN1CC1CC1)[C@H]2O5 [buprenorphine, 21-cyclopropyl-7.varies.-[(S)-1-hydroxy-1,2,2-trimethylpropyl]-6,14-endo-e thano-6,7,8,14-tetrahydrooripavine]
- analgesic potency relative to meperidine [1]: about 600 times
- analgesic potency relative to pentazocine [1]: about 200 times
- mean duration of analgesia [1]: six
- Tmax (0.4 mg sublingual dose): 210.+-.40 minutes
- systemic availability (0.4 mg sublingual dose): 57.7%
- Tmax (0.8 mg sublingual dose): 192.+-.49 minutes
- systemic availability (0.8 mg sublingual dose): 54.1%
- Total plasma clearance (conscious postoperative patients): approximately 1.28 I/minute
- hepatic extraction ratio (in vivo): approximately 1
- Oral bioavailability (in vivo, po): ~15%
- mean peak plasma buprenorphine concentrations (intramuscular second 0.3-mg dose 3 hours after the initial intravenous dose): about 3.6 ng/ml
- plasma concentrations (intramuscular second 0.3-mg dose, after about 3 hours): about 0.4 ng/ml
- plasma concentrations (intravenous about 0.3 mg, after about 5 minutes): about 9 ng/ml
- plasma concentrations (intravenous about 0.3 mg, after about 3 hours): about 0.4 ng/ml
- mean peak plasma drug concentrations [4]: about 18 ng/ml
- time of mean peak plasma drug concentrations [4]: ≤ 2 min
- time to highest concentrations in the liver ([2]; intramuscular administration in rats): ≤ 40 min
- time to highest concentrations in the liver ([2]; oral administration in rats): ≤ 10 min
- influence on the function of bladder or urethra ([3]; epidural application, 4 µg/kg (Batra) or 2 µg/kg (Drenger [with dogs])): does not have a significant influence
- cases showing urinary retention ([3]; i.v. application of 0.3 mg, patients of approx. 70 kg (4.3 µg/kg), Malinovsky): 5 out of 10
- urinary retention ([3]; sublingual application of 400µg (~ 5.7 µg/kg), case shown by Murray): urinary retention was seen
- bound to plasma proteins (plasma proteins): approximately 96%
